US20120219615A1, “Therapeutic Use of a TLR Agonist and Combination Therapy” (The Trustees of the University of Pennsylvania, priority 2010, published 2012)
Read-outs that look alike come from different tables or passages of the source.

Legend:
[1] = target: T1, TLR7 (Homo sapiens, UniProt Q9NYK1); experiment: HEK293 cells transfected with TLR7 and NF-κB driven reporter gene; format: cell-based; conditions: HEK293 transfectants
T1 construct: expressed in transfected cells; host or cells: HEK293
T1 sequence (Q9NYK1 27-1049): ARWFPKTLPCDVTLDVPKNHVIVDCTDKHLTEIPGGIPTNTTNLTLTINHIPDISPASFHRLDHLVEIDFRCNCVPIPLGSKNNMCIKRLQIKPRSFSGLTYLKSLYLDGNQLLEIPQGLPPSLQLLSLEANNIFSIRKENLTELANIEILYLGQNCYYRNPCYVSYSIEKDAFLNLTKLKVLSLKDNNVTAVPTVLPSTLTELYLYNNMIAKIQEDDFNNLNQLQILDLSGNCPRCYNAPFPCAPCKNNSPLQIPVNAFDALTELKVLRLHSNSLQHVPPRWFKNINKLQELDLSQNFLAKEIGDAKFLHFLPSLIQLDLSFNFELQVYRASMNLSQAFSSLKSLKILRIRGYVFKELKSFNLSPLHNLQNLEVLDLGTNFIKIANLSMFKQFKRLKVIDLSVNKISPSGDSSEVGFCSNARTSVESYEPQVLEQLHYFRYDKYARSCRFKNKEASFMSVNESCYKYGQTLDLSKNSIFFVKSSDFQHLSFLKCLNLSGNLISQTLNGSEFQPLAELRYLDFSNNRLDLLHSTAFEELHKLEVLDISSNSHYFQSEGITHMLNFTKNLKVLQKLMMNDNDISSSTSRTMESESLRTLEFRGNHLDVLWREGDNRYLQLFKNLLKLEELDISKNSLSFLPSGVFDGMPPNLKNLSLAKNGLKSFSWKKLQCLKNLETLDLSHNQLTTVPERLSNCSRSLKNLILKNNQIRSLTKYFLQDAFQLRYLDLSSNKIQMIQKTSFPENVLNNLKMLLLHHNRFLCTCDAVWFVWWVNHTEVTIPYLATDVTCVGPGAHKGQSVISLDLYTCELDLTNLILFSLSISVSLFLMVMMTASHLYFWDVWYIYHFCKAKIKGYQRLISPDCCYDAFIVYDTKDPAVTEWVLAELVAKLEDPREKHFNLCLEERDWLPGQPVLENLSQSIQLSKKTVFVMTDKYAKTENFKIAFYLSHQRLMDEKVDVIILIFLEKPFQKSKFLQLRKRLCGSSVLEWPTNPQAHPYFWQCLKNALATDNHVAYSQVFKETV
Method: (§1) The half-maximal effective concentration (EC50) for VTX-2337 activation of TLR8 and TLR7 was assessed in peripheral blood mononuclear cells (PBMCs) from 15 healthy donors and also in HEK293 cells transfected with TLR8 or TLR7 and an NF-κB driven reporter gene. […] Also it was observed that VTX-2337 had no activity on TLR2, TLR3, TLR4, TLR5, TLR6, or TLR9 at concentrations up to 25 μM.

[2] = target: TLR2 (Homo sapiens, UniProt O60603); experiment: Activity on TLR2; format: cell-based; conditions: concentrations up to 25 μM
Sequence of TLR2 (O60603 21-784, species assumed): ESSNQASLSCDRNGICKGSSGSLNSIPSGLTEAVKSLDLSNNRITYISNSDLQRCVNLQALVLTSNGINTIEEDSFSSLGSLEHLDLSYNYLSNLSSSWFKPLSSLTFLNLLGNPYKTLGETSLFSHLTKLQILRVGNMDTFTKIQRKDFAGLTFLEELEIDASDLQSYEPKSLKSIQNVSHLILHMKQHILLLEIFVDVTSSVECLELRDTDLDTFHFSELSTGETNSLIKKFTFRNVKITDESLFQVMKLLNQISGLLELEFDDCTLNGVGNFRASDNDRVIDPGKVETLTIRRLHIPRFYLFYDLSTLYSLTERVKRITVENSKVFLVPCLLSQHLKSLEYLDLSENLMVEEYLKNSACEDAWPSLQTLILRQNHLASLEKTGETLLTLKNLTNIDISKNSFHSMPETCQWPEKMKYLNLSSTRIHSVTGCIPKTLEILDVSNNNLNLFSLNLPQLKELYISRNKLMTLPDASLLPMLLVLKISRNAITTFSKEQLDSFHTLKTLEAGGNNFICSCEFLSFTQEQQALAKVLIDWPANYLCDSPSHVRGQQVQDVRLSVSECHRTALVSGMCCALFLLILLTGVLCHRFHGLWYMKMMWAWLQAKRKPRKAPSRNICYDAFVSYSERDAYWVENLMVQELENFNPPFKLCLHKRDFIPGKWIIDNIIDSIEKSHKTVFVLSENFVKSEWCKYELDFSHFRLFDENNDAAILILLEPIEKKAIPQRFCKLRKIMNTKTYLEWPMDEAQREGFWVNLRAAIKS
Method: as §1

[3] = target: TLR4 (Homo sapiens, UniProt O00206+Q9Y6Y9); experiment: Activity on TLR4; format: cell-based; conditions: concentrations up to 25 μM
Sequence of TLR4 (O00206 24-839, species assumed): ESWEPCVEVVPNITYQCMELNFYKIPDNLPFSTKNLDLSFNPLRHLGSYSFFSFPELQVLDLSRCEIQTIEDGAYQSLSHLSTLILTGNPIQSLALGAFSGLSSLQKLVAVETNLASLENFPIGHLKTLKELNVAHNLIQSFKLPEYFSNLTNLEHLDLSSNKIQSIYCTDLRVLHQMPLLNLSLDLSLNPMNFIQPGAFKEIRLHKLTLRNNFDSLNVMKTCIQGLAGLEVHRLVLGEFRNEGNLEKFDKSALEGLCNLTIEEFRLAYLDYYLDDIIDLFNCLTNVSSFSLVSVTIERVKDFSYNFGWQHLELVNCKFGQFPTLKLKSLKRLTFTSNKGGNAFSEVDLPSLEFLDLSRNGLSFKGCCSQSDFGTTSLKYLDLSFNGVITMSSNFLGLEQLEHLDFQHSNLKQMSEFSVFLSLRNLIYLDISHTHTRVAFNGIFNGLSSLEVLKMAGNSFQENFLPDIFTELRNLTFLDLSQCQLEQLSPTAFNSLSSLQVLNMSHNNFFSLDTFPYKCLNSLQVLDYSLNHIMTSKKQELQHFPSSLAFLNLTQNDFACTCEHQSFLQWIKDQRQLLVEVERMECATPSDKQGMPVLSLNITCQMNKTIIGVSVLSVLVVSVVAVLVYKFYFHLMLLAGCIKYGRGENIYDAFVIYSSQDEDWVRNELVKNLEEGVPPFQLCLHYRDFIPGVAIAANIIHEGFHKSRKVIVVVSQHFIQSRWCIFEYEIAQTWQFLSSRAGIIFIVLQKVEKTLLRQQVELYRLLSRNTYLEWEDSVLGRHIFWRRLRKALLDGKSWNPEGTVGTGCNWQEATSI
Sequence of TLR4 (Q9Y6Y9 17-160 limits assumed, species assumed): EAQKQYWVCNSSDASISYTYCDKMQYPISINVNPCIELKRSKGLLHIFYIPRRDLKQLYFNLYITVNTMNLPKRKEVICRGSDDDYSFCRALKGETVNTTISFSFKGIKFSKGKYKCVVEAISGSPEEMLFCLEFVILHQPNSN
Method: as §1

[4] = target: TLR5 (Homo sapiens, UniProt O60602); experiment: Activity on TLR5; format: cell-based; conditions: concentrations up to 25 μM
Sequence of TLR5 (O60602 21-858, species assumed): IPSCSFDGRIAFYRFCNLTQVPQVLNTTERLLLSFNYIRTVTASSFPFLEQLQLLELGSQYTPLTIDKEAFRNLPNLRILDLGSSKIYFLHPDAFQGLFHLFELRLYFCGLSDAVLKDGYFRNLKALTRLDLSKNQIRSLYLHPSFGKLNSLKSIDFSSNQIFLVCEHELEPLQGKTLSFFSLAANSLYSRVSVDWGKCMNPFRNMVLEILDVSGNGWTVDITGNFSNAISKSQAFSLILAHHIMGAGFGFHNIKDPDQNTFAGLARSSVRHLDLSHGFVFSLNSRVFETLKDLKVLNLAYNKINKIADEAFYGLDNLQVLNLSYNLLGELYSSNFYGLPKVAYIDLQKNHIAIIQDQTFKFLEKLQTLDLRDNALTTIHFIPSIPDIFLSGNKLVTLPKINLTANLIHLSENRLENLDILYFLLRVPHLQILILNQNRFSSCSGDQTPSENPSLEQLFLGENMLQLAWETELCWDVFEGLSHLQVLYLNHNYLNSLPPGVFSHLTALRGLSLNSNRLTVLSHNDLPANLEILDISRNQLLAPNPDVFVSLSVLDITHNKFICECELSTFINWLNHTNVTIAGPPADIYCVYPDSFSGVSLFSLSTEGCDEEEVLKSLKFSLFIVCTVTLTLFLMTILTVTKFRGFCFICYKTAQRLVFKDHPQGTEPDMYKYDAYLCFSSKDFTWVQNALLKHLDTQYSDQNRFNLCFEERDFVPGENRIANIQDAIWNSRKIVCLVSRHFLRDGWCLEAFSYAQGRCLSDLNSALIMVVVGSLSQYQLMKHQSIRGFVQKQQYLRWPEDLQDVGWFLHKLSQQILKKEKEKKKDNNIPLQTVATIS
Method: as §1

[5] = Phase I clinical study: pharmacokinetics after subcutaneous administration; format: in vivo; conditions: human; for DN AUC(0-∞) / DN Cmax: dose normalized; for DN AUC(0-∞) / DN Cmax / AUC(0-inf) / Cmax / half-life / Tmax: first dose; for AUC(0-inf) / Cmax / half-life / Tmax: plasma, sc
Method: Study Procedures: VTX-2337 was administered weekly via subcutaneous injection on Days 1, 8, and 15 of a 28-day dosing cycle for two cycles. Using a modified Fibonacci dose-escalation scheme, successive cohorts received doses ranging from 0.1 mg/m^2 to 3.9 mg/m^2 of VTX-2337. Plasma samples were collected for pharmacokinetic analysis after the first dose of the first treatment cycle and for pharmacodynamic analyses after the first dose of the first and second treatment cycles.
Samples were collected at 0.5, 1, 1.5, 2, 4, 8, and 24 hours after subcutaneous administration of the first dose of VTX-2337 and plasma levels of VTX-2337 were quantified by LC-MS/MS. VTX-2337 was rapidly absorbed into systemic circulation with the mean Tmax occurring between 0.5 and 0.8 hours following dosing. […] Peak plasma levels (Cmax) and total systemic exposure both increased with increasing dose. Dose normalized (DN) values for Cmax and AUC(0-∞) were calculated.

EC50 [1]: 2 µM
activity on TLR2 [2]: no activity
activity on TLR4 [3]: no activity
activity on TLR5 [4]: no activity
DN AUC(0-∞) ([5]; s.c., 0.1 mg/m^2): 31.2 (ng · hr/mL)/(mg/m^2)
DN Cmax ([5]; s.c., 0.1 mg/m^2): 15.2 (ng/ml)/(mg/m^2)
DN AUC(0-∞) ([5]; s.c., 0.2 mg/m^2): 23.7 (ng · hr/mL)/(mg/m^2)
DN Cmax ([5]; s.c., 0.2 mg/m^2): 9.9 (ng/ml)/(mg/m^2)
DN AUC(0-∞) ([5]; s.c., 0.4 mg/m^2): 27.4 (ng · hr/mL)/(mg/m^2)
DN Cmax ([5]; s.c., 0.4 mg/m^2): 16.7 (ng/ml)/(mg/m^2)
DN AUC(0-∞) ([5]; s.c., 0.8 mg/m^2): 24.0 (ng · hr/mL)/(mg/m^2)
DN Cmax ([5]; s.c., 0.8 mg/m^2): 7.4 (ng/ml)/(mg/m^2)
DN AUC(0-∞) ([5]; s.c., 1.3 mg/m^2): 22.7 (ng · hr/mL)/(mg/m^2)
DN Cmax ([5]; s.c., 1.3 mg/m^2): 8.4 (ng/ml)/(mg/m^2)
DN AUC(0-∞) ([5]; s.c., 2.0 mg/m^2): 29.6 (ng · hr/mL)/(mg/m^2)
DN Cmax ([5]; s.c., 2.0 mg/m^2): 7.3 (ng/ml)/(mg/m^2)
DN AUC(0-∞) ([5]; s.c., 2.8 mg/m^2): 28.7 (ng · hr/mL)/(mg/m^2)
DN Cmax ([5]; s.c., 2.8 mg/m^2): 7.1 (ng/ml)/(mg/m^2)
DN AUC(0-∞) ([5]; s.c., 3.9 mg/m^2): 20.8 (ng · hr/mL)/(mg/m^2)
DN Cmax ([5]; s.c., 3.9 mg/m^2): 5.9 (ng/ml)/(mg/m^2)
pharmacokinetics over the dose ranges evaluated ([5]; s.c., 0.1-3.9 mg/m^2): appeared to be linear
AUC(0-inf) ([5]; 0.1 mg/m^2 (~0.0022 mg/kg)): 3.12 ng·h/mL
Cmax ([5]; 0.1 mg/m^2 (~0.0022 mg/kg)): 1.52 ng/mL
AUC(0-inf) ([5]; 0.2 mg/m^2 (~0.0054 mg/kg)): 4.74 ng·h/mL
Cmax ([5]; 0.2 mg/m^2 (~0.0054 mg/kg)): 1.97 ng/mL
AUC(0-inf) ([5]; 0.4 mg/m^2 (~0.011 mg/kg)): 10.9 ng·h/mL
Cmax ([5]; 0.4 mg/m^2 (~0.011 mg/kg)): 6.69 ng/mL
AUC(0-inf) ([5]; 0.8 mg/m^2 (~0.022 mg/kg)): 19.2 ng·h/mL
Cmax ([5]; 0.8 mg/m^2 (~0.022 mg/kg)): 5.93 ng/mL
AUC(0-inf) ([5]; 1.3 mg/m^2 (~0.035 mg/kg)): 29.5 ng·h/mL
Cmax ([5]; 1.3 mg/m^2 (~0.035 mg/kg)): 10.9 ng/mL
AUC(0-inf) ([5]; 2.0 mg/m^2 (~0.054 mg/kg)): 59.1 ng·h/mL
Cmax ([5]; 2.0 mg/m^2 (~0.054 mg/kg)): 14.6 ng/mL
AUC(0-inf) ([5]; 2.8 mg/m^2 (~0.076 mg/kg)): 80.3 ng·h/mL
Cmax ([5]; 2.8 mg/m^2 (~0.076 mg/kg)): 19.9 ng/mL
AUC(0-inf) ([5]; 3.9 mg/m^2 (~0.105 mg/kg)): 81.1 ng·h/mL
Cmax ([5]; 3.9 mg/m^2 (~0.105 mg/kg)): 23 ng/mL
half-life ([5]; s.c., 0.1 mg/m^2 (~0.0022 mg/kg), read-out: T1/2 (converted)): 1.7 h
Tmax ([5]; s.c., 0.1 mg/m^2 (~0.0022 mg/kg), read-out: Tmax): 0.5 h
half-life ([5]; s.c., 0.2 mg/m^2 (~0.0054 mg/kg), read-out: T1/2 (converted)): 3 h
Tmax ([5]; s.c., 0.2 mg/m^2 (~0.0054 mg/kg), read-out: Tmax): 0.8 h
half-life ([5]; s.c., 0.4 mg/m^2 (~0.011 mg/kg), read-out: T1/2 (converted)): 6.6 h
Tmax ([5]; s.c., 0.4 mg/m^2 (~0.011 mg/kg), read-out: Tmax): 0.5 h
half-life ([5]; s.c., 0.8 mg/m^2 (~0.022 mg/kg), read-out: T1/2 (converted)): 5.3 h
Tmax ([5]; s.c., 0.8 mg/m^2 (~0.022 mg/kg), read-out: Tmax): 0.5 h
half-life ([5]; s.c., 1.3 mg/m^2 (~0.035 mg/kg), read-out: T1/2 (converted)): 5.6 h
Tmax ([5]; s.c., 1.3 mg/m^2 (~0.035 mg/kg), read-out: Tmax): 0.5 h
half-life ([5]; s.c., 2.0 mg/m^2 (~0.054 mg/kg), read-out: T1/2 (converted)): 6.7 h
Tmax ([5]; s.c., 2.0 mg/m^2 (~0.054 mg/kg), read-out: Tmax): 0.5 h
half-life ([5]; s.c., 2.8 mg/m^2 (~0.076 mg/kg), read-out: T1/2 (converted)): 5.7 h
Tmax ([5]; s.c., 2.8 mg/m^2 (~0.076 mg/kg), read-out: Tmax): 0.5 h
half-life ([5]; s.c., 3.9 mg/m^2 (~0.105 mg/kg), read-out: T1/2 (converted)): 5.3 h
Tmax ([5]; s.c., 3.9 mg/m^2 (~0.105 mg/kg), read-out: Tmax): 0.5 h
Tmax ([5]; s.c., across cohorts 0.1-3.9 mg/m^2, read-out: mean Tmax): 0.5 to 0.8 h
half-life ([5]; s.c., across cohorts 0.1-3.9 mg/m^2, read-out: mean half-life (t1/2)): 1.7 to 6.7 h
SMILES: CCCN(CCC)C(=O)C1=Cc2ccc(-c3ccc(C(=O)N4CCCC4)cc3)cc2N=C(N)C1 [VTX-2337, 2-amino-N,N-dipropyl-8-(4-(pyrrolidine-1-carbonyl)phenyl)-3H-benzo[b]azepine-4-carboxamide]
